Usually clearance stands for the rate of elimination divided by the concentration. Usually Cmax stands for the highest concentration seen after dosing. What is called half-life is how long it takes for the measured level to halve. For orientation: AUC means concentration integrated over time. A word on the Vss: it is a proportionality between amount in the body and measured concentration, not a real space.

Read-outs that look alike come from different tables or passages of the source.

For one data set, the system named is rat cortical neurons. Put plainly: NMDA excitotoxicity assay, LDH release. Type of data set: cell-based. The settings on record: NMDA 30 µM. As for the experimental part: (§1) Primary cortical neurons were prepared from embryonic day 16 C57bl/6J mouse pups or embryonic day 18 Wistar rat pups. Briefly, cerebral cortices were physically and chemically dissociated with 0.25% trypsin-EDTA (Gibco, Waltham, MA, USA) in dissociation medium (HBSS) at 37 °C for 15 min followed by trituration. The dissociated cells were checked under a microscope for single cells and plated out on poly-L-lysine (Sigma-Aldrich) -coated, 24-well plates (187,500 cells/well) for the excitotoxicity assays, and 96-well plates (47,000 cells/well) for the oxidative stress assays. Neuronal cultures were maintained in B27 neurobasal medium with Glutamax and pen-strep (Gibco) in a 5% CO2 incubator at 37 °C, and cells were used at 11–14 days in vitro for experiments.
(§2) Neurons were pretreated with L- or D-carnosine for 24 h prior to NMDA stimulation (30 µM) for 30 min. Post-NMDA stimulation, the cells were washed and incubated back in the original medium in the presence or absence of L- and D-carnosine. Wells were washed and the B27-neurobasal medium was replaced in the presence or absence of L- or D-carnosine. Cytotoxicity was measured after 24 h using the Pierce cytotoxicity lactate dehydrogenase (LDH) assay kit. Cell viability was measured by 3-[4–Dimethylthiazol-2-yl]-2,5-diphenyltetrazolium bromide (MTT) assay, which reflects cell metabolism. After NMDA removal, the cells were evaluated for cell viability after 24 h with the addition of fresh media containing each drug. MTT (Sigma Aldrich; final 5 mg/mL) was added to each well and the cells were incubated for 2 h at 37 °C in the dark. Insoluble formazan was dissolved by the addition of 100 μL of DMSO and the absorbance (570 nm) was measured using a multimode plate reader (EnSpire, PerkinElmer, Waltham, MA, USA).

A further data set concerns mouse cortical neurons. As to the kind of experiment: NMDA excitotoxicity assay, LDH release. In kind it is cell-based. The settings on record: NMDA 30 µM. The protocol:
as §1, §2

On the set-up of data set [1]: method as in PMID 23850642. To be noted: rats, 15 min after intravenous injection of 2000 mg/kg; cited from earlier work.
The nature of data set [2]: Serum pharmacokinetics after single intravenous injection (LC-MS/MS). Type of data set: in vivo. To be noted: mice, 1000 mg/kg IV; for serum levels (molar): converted from μg/mL; for half-life: naive pooled noncompartmental analysis. As for the experimental part:
Mice were randomly divided into the treatment groups (n = 4~5 mice/group for each time point) and given a single intravenous injection of saline or L-carnosine (1000 mg/kg) or D-carnosine (1000 mg/kg) through the tail vein. Anesthesia was induced by isoflurane inhalation and maintained during intravenous injection. Blood samples were collected by cardiac puncture at 0, 5, 15, 30, 60, 180 and 360 min postadministration of carnosine. Blood was incubated at room temperature for 30 min to allow clotting to occur, followed by centrifugation at 12,000 g to isolate serum. Remaining blood was removed from the body through perfusion with phosphate-buffered saline, and the brain was carefully isolated. Aliquots of brain tissue (300 mg) and serum (150 μL) were stored at −70 °C and used for analysis.
Carnosine levels in serum or brain were determined using liquid chromatography tandem-mass spectrometry (LC-MS/MS) as previously described with a slight modification. H-Tyr-His-OH (Bachem AG, Köln, Germany) was used as internal standard (IS). The entire procedure for sample and standard preparation was carried out on ice. Serum (150 μL) or homogenized brain tissue (300 mg) were deproteinized using an ultrasonicator (VCX 500, Sonics & Materials Inc., Newtown, CT, USA) with 1 mL of 1 M TCA and 50 μL of 3 M TCA, respectively. After spiking the IS (10 μg for brain and 200 ng for serum), each homogenate was centrifuged at 9000 g for 15 min at 4 °C. The supernatant was used for the assay of carnosine concentrations. Calibration curves were obtained by spiking known concentrations of L- or D-carnosine (Sigma-Aldrich, St. Louis, MO, USA) into homogenates of brain or serum obtained from untreated mice, and samples were processed as described above.
Chromatographic separation and quantitation were performed using an LC-MS/MS system composed of HPLC (Ultimate 3000, Dionex, Rome, Italy) coupled with electrospray ionization (ESI) and triple quadrupole-ion trap mass spectrometry (3200 Qtrap, AB Sciex, Ontario, Canada). Synergi C18-L (Phenomenex 150 × 4.6 mm, 4 μm particle size) column was used with a 0.8 mL/min flow rate of mobile phase. Isocratic elution of 75/25 (5 mM heptafluorobutyric acid/acetonitrile) was used for brain samples and gradient elution (95/5 to 80/20 for 6 min and holding for 4 min) was used for serum samples. The injection volume was 5 μL. For ESI source, ion spray voltage was 4.5 kV and capillary temperature was set at 650 °C which provided optimum ionization of each analyte. A multiple reaction monitoring (MRM) in positive mode was used to detect carnosine (m/z 227 > 110 as quant ion, 156 and 83 as qualifier), histidine (m/z 156 > 110 as quant ion, 83 and 82 as qualifier) and IS (m/z 319 > 110 as quant ion, 156 and 91 as qualifier). Pharmacokinetic parameters were calculated by noncompartmental analysis using a sparse sampling and naïve pooled approach (WinNonLin (Phoenix 64 Build 8.0.0.3176), Certara, Mountain View, CA, USA).

Data set [3] relates to primary mouse neurons. Put plainly: NMDA excitotoxicity assay, cell viability by MTT. In kind it is cell-based. The settings on record: 24 h pretreatment, 24 h after NMDA. The protocol: Primary cortical neurons were prepared from embryonic day 16 C57bl/6J mouse pups or embryonic day 18 Wistar rat pups. Briefly, cerebral cortices were physically and chemically dissociated with 0.25% trypsin-EDTA (Gibco, Waltham, MA, USA) in dissociation medium (HBSS) at 37 °C for 15 min followed by trituration. The dissociated cells were checked under a microscope for single cells and plated out on poly-L-lysine (Sigma-Aldrich) -coated, 24-well plates (187,500 cells/well) for the excitotoxicity assays, and 96-well plates (47,000 cells/well) for the oxidative stress assays. […]
Neurons were pretreated with L- or D-carnosine for 24 h prior to NMDA stimulation (30 µM) for 30 min. […] Cytotoxicity was measured after 24 h using the Pierce cytotoxicity lactate dehydrogenase (LDH) assay kit. Cell viability was measured by 3-[4–Dimethylthiazol-2-yl]-2,5-diphenyltetrazolium bromide (MTT) assay, which reflects cell metabolism. After NMDA removal, the cells were evaluated for cell viability after 24 h with the addition of fresh media containing each drug. […] Insoluble formazan was dissolved by the addition of 100 μL of DMSO and the absorbance (570 nm) was measured using a multimode plate reader (EnSpire, PerkinElmer, Waltham, MA, USA).

Data set [4] concerns primary mouse neurons. As to the kind of experiment: Oxidative stress assay: ROS accumulation (DCF fluorescence) after B27 withdrawal. To be noted: 24 h B27 withdrawal. Type of data set: cell-based. As for the experimental part: as §1
Cytosolic oxidative stress was determined using dichlorofluorescein (DCF) fluorescence. Primary neurons were loaded with 20 µM 2′, 7′-dichlorodihydrofluorescein diacetate (H2DCFDA; Invitrogen) for 45 min, washed and oxidative stress was induced by B27-withdrawal for 24 h, in the presence or absence of L- or D-carnosine. The fluorescence of oxidized DCF was read after 24 h at Ex485 nm/Em530 nm using the Pherastar FS platereader.

In data set [5] the test system is transient focal cerebral ischemia (MCAO). As to the kind of experiment: Transient focal cerebral ischemia (60 min t-MCAO), infarct volume by TTC staining. Type of data set: in vivo, mice. The settings on record: for infarct volume reduction in comparison to saline: 48 h post-t-MCAO; for infarct volume reduction: 1000 mg/kg intravenously 2 h post-t-MCAO, 48 h post-MCAO. The protocol: Mice were anesthetized by inhalation of 5% isoflurane (in 100% Oxygen) and maintained at 1.5% isoflurane throughout the surgical procedure. Body temperature was monitored throughout surgery using a rectal probe and maintained at 37 + 0.5 °C using a heating pad (World Precision Instruments, Hitchin, Hertfordshire, UK). Laser Doppler flowmetry (Moor Instruments, Sussex, UK) was used to monitor cerebral blood flow. Focal cerebral ischemia was induced by middle cerebral artery occlusion (MCAO) by insertion of an intraluminal monofilament. […] A midline incision was made on the ventral side of the neck and the left common carotid artery (CCA) was isolated and ligated. Another ligature was tied on the left external carotid artery (ECA) and a loose knot was tied onto the internal carotid artery (ICA) as well as CCA just below the bifurcation. A very fine incision was made on the lower end of CCA and the monofilament (Doccol Corporation, Sharon, MA, USA) was advanced approximately 9 mm distal to the bifurcation into the ICA until it reached the distal end of middle cerebral artery (MCA). Relative cerebral blood flow was monitored for initial 10 min postfilament insertion to confirm at least 70% reduction of […] values. The animals were kept under anesthesia for the ischemic period of 60 min, after which the filament was withdrawn and reperfusion (confirmed using LD) was allowed to take place. The knots were untied and the animals were allowed to recover at 37 °C for 1 h before they were transferred to their normal cages. In the first set of experiments, 60 min transient MCAO (t-MCAO) was induced in mice weighing 20-25 g. At the onset of reperfusion, saline or different doses of drugs (L- and D-carnosine; 100, 500 or 1000 mg/kg) were delivered intraperitoneally (IP). Postrecovery, the animals were allowed to recover, placed back in their normal environment for 48 h and then euthanized. (IP administration was used as it was technically difficult to do IV injections at reperfusion). In a second set of experiments, drugs and saline were administered intravenously 2 h post-t-MCAO at 1000 mg/kg. Forty-eight hours post-t-MCAO, mice were deeply anaesthetized with 5% isoflurane, brains were removed and coronal slices with a thickness of 1 mm were prepared. Brain slices were immersed in 2% TTC (Sigma Aldrich) solution and incubated at 37 °C for 20 min. The area of infarction was traced and measured using image J analysis software. The infarct area was also corrected for edema: (1-(total ipsilateral hemisphere-infarct region)/total contralateral hemisphere) × 100. Total infarct volume was calculated as the sum of all infarct areas multiplied by each section thickness.

The format of data set [6] is in vivo. The settings on record: mice, doses up to 1000 mg/kg.
Details of data set [7]: method as in PMID 19301317. The settings on record: cited from earlier work.
On the set-up of data set [8]: method as in PMID 19301317. To be noted: cited from earlier work. The source holds these as a separate data set.
Setting [9] is: 100 mg/kg IP at onset of reperfusion.
Setting [10] is: 500 mg/kg IP at onset of reperfusion.
Setting [11] is: 1000 mg/kg IP at onset of reperfusion.

In the case of `NCCC(=O)N[C@@H](Cc1cnc[nH]1)C(=O)O` [L-carnosine, β-alanyl-L-histidine], the “reduction of cell death (LDH assay)” value with rat cortical neurons (200 µM) is listed as 18.5%; in the data set on mouse cortical neurons (10 µM), “did not show neuroprotection”; in the data set with mouse cortical neurons (100 µM), “did not show neuroprotection”; with mouse cortical neurons (200 µM), 12.2%. The “serum levels of carnosine” value in data set [1] was 15~20 mmol/L. Besides, in data set [2] (5 min after injection), the “serum levels (molar)” value turned out to be 17700 µM. Moreover, the clearance in data set [2] (mouse, serum) was found to be 11.1 mL/min/kg. Further, the Cmax in data set [2] (mouse, serum, 5 min after injection) was 4010 µg/mL. Besides, the half-life in data set [2] (mouse, serum, read-out: Half-Life) is 1.3 h. Besides, in data set [2] (mouse, serum, read-out: AUC (converted)), the AUC was 1500 µg·h/mL. In [2] (mouse, serum, read-out: Vss), the Vd was determined as 0.223 L/kg. Moreover, the “protection against decrease of cell viability by NMDA (MTT)” value in the data set on primary mouse neurons [3] is “significant protection”. For the same compound, the results for the “attenuation of ROS accumulation” value with primary mouse neurons [4] (100 µM) and in the data set with primary mouse neurons [4] (200 µM) were 18.6% and 19.3%, respectively. Moreover, the “infarct volume reduction in comparison to saline” value in [5] (setting [9]) turned out to be 33.4%; in [5] (setting [10]), 30.94%; in [5] (setting [11]) it was 47.4%. In addition, the infarct volume reduction in data set [5] came out at 53.8%. Besides, in data set [6], the safety and tolerability entry was “safe and well tolerated”.
Regarding `NCCC(=O)N[C@H](Cc1cnc[nH]1)C(=O)O` [D-carnosine], the “reduction of cell death (LDH assay)” value in the data set with rat cortical neurons (10 µM) amounted to 21.9%; in the data set with rat cortical neurons (100 µM) it was 26.4%; in the data set on rat cortical neurons (200 µM) it was 22.8%; with mouse cortical neurons (10 µM), 13.1%; in the data set with mouse cortical neurons (100 µM) it was 13.3%; in the data set with mouse cortical neurons (200 µM), 15%. Besides, the “stability in human plasma” value in data set [7] was “stable in human plasma”. The “serum levels (molar)” value in data set [2] (5 min after injection) turned out to be 25700 µM. In [2] (serum), the AUC stood at 1801.87 µg·h/mL. In data set [2] (serum), the CL came out at 9.23 mL/min/kg. The Vss in data set [2] (serum) was 0.12 L/kg. Moreover, in data set [2] (serum, 5 min after injection), the “Cmax (5 min)” value came to 5818 µg/mL. In addition, the half-life in data set [2] (serum) is 1.25 h. Also, in the data set on primary mouse neurons [3], the “protection against decrease of cell viability by NMDA (MTT)” value is given as “significant protection”. Further, the “attenuation of ROS accumulation” value with primary mouse neurons [4] (200 µM) is on record as 14.5%. The results for the “infarct volume reduction in comparison to saline” value in [5] (setting [9]), in data set [5] (setting [10]) and in data set [5] (setting [11]) were 23.6%, 27.8% and 57.2%, respectively. In addition, the infarct volume reduction in data set [5] turned out to be 52.1%. The safety and tolerability result in [6] was “safe and well tolerated”. Further, in data set [8], the “ability to cross the blood brain barrier” value is on record as “able to cross the blood brain barrier”.

Source of the values: PMC7246848, “Comparative Cerebroprotective Potential of D- and L-Carnosine Following Ischemic Stroke in Mice” (International Journal of Molecular Sciences, 2020).
